In general, melting point refers to the temperature of the solid-liquid transition.

In patent publication US20080096859A1, “Compositions and Methods for Treating Ophthalmic Diseases” (priority 2004, published 2008) one finds melting point data, which are given here for 2 compounds.

Molecules are shown by their SMILES. Counter-ions that a name gives are not always drawn.

For the compound `c1ccc(CNC[C@@H]2CCN(CCc3c[nH]c4ccc(Cn5cncn5)cc34)C2)cc1` (as salt: oxalate), the melting point lay within 154 to 156 °C.

With `c1ccc(CCNC[C@@H]2CCN(CCc3c[nH]c4ccc(-n5cnnc5)cc34)C2)cc1` (as salt: oxalate) (hydrate or solvate), the melting point was in the range of 189 to 190 °C.
